Assay [1] concerns primary human dendritic cells. In words: FACS analyses of markers of maturation (CD83, CD86) of primary human dendritic cells. Type of assay: cell-based. Here is the method: Cells, Antibodies and Chemicals. HeLa cells were obtained from the American Type Culture Collection (Rockville, Md., USA) and maintained as monolayer cultures in Iscove's-modified Dulbecco's medium (IMDM, Invitrogen, Inc., Carlsbad, Calif., USA) supplemented with 10% newborn calf serum (NCS) (Lonza, Inc., Basel, SWITZERLAND) and antibiotics. Leukapheresis-derived PBMCs were resuspended in serum-free AIM-V medium (Lonza, Inc.) and semi-adherent cell fractions were incubated in serum-free AIM-V medium supplemented with recombinant human IL-4 (500 U/mL) and GM-CSF (800 U/mL) (R&D Systems, MN, USA). Cells were treated with NF-κB modulators ([…]), and cytokines cocktail including 10 ng/mL TNF-α, 10 ng/mL IL-1, 10 ng/mL IL-6, […] (R&D Systems) for 20 hr. Cells were harvested, characterized to ensure they met the typical phenotype of mature DCs (CD83, RPE, murine IgG1, CD86, FITC, murine IgG1; Invitrogen, Inc.). All primary and secondary antibodies were purchased from Cell Signaling Technology, Inc. (Danvers, Mass., USA) or Santa Cruz Biotechnology, Inc (Santa Cruz, Calif., USA). NF-kB activators [Etoposide (VP16), Aphidicolin, Hydroxyurea (HU)] and NF-kB inhibitors [Bay11-7082 (Bay11), Pyrrolidine dithiocarbamate (PDTC)] were purchased from Sigma-Aldrich Co. (St. Louis, Mo., USA). These compounds were re-suspended in either DMSO (Sigma-Aldrich Co.) or in sterile, DNAase-, RNAase-free water (Invitrogen, Inc.) as per the manufacturer's instructions.

A further assay relates to HeLa cells. Put plainly: AAV-EGFP transduction of HeLa cells in the presence of NF-κB modulators. Type of assay: cell-based, human. On the procedure:
Recombinant AAV Vector Transduction Assays in Vitro. Optimal concentration of NF-κB-modulating compounds was determined by a cell viability assay with tenfold-dilutions from the IC50 or were used as described previously (Wu and Miyamoto, 2008; Kumar et al., 2008). VP16 or Bay11 (10 or 5 μM, final concentration), and PDTC (50 or 25 μM final concentration) were used either alone or in activator/inhibitor combinations. For transduction experiments, approximately 1×10^5 HeLa cells were either pre-treated with these compounds 24 hrs prior to vector infection. Cells were transduced with 500 or 2,000 vector genomes (vgs) per cell of recombinant WT-AAV or TM-AAV vectors encoding the EGFP transgene as described previously (Markusic et al., 2010). After 7 days of culture, primary human dendritic cells were transduced with AAV vectors at 2000 vgs/cell and incubated for 48 hrs. Transgene expression was assessed as total area of green fluorescence (pixel^2) per visual field (mean±SD), or by flow cytometry. Analysis of variance (ANOVA) was used to compare between test results and the control and they were determined to be statistically significant.

Another assay relates to anti-AAV2 IgG2a. In words: Anti-AAV2 IgG2a levels in peripheral blood. It is filed as in vivo, mice. The following applies: day 10. Here is the method: Anti-AAV2 IgG2a levels were determined in peripheral blood from mice at day 10 following injections with scAAV vectors, with and without prior administration of Bay11 (n=4 each);
Inhibition of NF-κB Activation Leads to Suppression of Pro-Inflammatory Cytokine Production Prior to AAV Vector-Mediated Gene Transfer in Mice in Vivo. In in vivo studies, a single dose of Bay11 at 20 mg/kg body weight was administered intra-peritoneally (i.p.) 12 hrs prior to vector administration in C57BL/6 mice. Transcript levels from liver homogenates of innate immune mediators (FIG. 3A) or for activation of NF-κB (FIG. 3B) genes were measured from Bay11- and vector-injected groups and compared with sham-injected mice. […] The up-regulation of type I interferon expression by both wild-type (WT-AAV) and TM-AAV vectors was unaffected by Bay11 (FIG. 8A, FIG. 8B, FIG. 8C, FIG. 8D, FIG. 8E, and FIG. 8F).

Setting [2] is: Mature DCs + AAV + Cytokines + modulator.

On to `Cc1ccc(S(=O)(=O)/C=C/C#N)cc1` [Bay11, Bay11-7082], for which the “maturation of DCs (CD83, CD86)” value in assay [1] is reported as “inhibition of cytokine-mediated maturation”. Also, in assay [1] (setting [2]), the “Geometric means of levels of expression in cells expressing CD83” value is given as 16.88 and the “Geometric means of levels of expression in cells expressing CD86” value worked out at 10.11. The “AAV vector-mediated EGFP expression, fold augmentation” value with HeLa cells (HeLa, scAAV-EGFP) was “totally ablated”. Moreover, the “VP16-mediated augmented transgene expression” value in the assay with HeLa cells (activator/inhibitor combination) is given as “completely ablated”. Also, in the assay with anti-AAV2 IgG2a, the anti-AAV2 antibody response entry is on record as “significantly reduced”.

The record behind these values is patent US12358954B2, “Capsid-modified rAAV vector compositions and methods therefor” (priority 2012, dated 2025).
